Measured values as given in patent publication US10881645B2, “Methods for controlling blood pressure and reducing dyspnea in heart failure” (Chiesi Farmaceutici S.p.A., priority 2012, dated 2021).

What was measured:
[1] = system: AHF patients with SBP of ≥160 mmHg; assay: Randomized open label 13-center trial: blood pressure control, clevidipine vs standard of care; format: in vivo, human
Experimental: (§1) A randomized open label 13-center trial enrolled AHF patients with SBP of ≥160 mmHg, sitting dyspnea score ≥50 on a 100 mm VAS, and a physician's clinical diagnosis of AHF with pulmonary congestion by chest auscultation.
(§2) If the target blood pressure range was not reached within 30 minutes, or not maintained thereafter, alternative antihypertensive agents were allowed per physician discretion, with or without continuation of the study drug.
(§3) Two populations were analyzed. The “safety” population included all patients receiving any study drug, and was used for all safety analyses.

[2] = system: AHF patients with SBP of ≥160 mmHg; assay: Safety analyses of the AHF trial (hypotension, adverse events, deaths)
Experimental: as §1, §2, §3
Historical ejection fraction data was recorded when available.

[3] = system: AHF patients with SBP of ≥160 mmHg; assay: Dyspnea assessment by 100 mm VAS, VMAC scale and PDA; format: in vivo, human
Experimental: Dyspnea was assessed by a 100 mm VAS, in which a score of 0 was “no dyspnea” and a score of 100 represented “worst possible dyspnea.” Dyspnea was evaluated immediately prior to study drug administration, and at 15, 30, 45, 60, 120, 360 and 720 minutes afterward. In addition, the Vasodilation in the Management of Acute Congestive Heart Failure (VMAC) scale, a relative 7 point Likert score, and the Provocative Dyspnea Assessment (PDA) (Pang et al, Eur Heart J2008, 29) were both performed in the seated and supine positions and recorded.

[4] = in vivo; cited from earlier work
[5] = AHF population, 30-minute target SBP range

CCCC(=O)OCOC(=O)C1=C(C)NC(C)=C(C(=O)OC)C1c1cccc(Cl)c1Cl (stereo not drawn) [clevidipine]
Target blood pressure range achieved, % of patients [1, 5]: 70.5%
Target blood pressure range achieved, patients/total [1, 5]: 31/44
AUC above the target blood pressure, median ([1]; in vivo): 327 mmHg×min/h
AUC below the target blood pressure, median ([1]; in vivo): 0 mmHg×min/h
AUC outside the target blood pressure, median ([1]; in vivo): 379 mmHg×min/h
Patients requiring additional antihypertensives ([1]; in vivo): 15.9%
Rate of being within, but not below, the target blood pressure range ([1]; in vivo): 45.5%
Median time to reach target blood pressure range ([1]; patients in which the target range was achieved): 15 min
Duration of SBP <90 mmHg ([2]; human, in vivo): 3.3 min
Patients who exceeded their lower target blood pressure range limit ([2]; human, in vivo): 15 patients
Patients with at least one related TEAE, % ([2]; human, in vivo): 9.8%
Proportion of time that SBP was <90 mmHg while on study drug ([2]; human, in vivo): 2.5%
SBP <90 mmHg occurred, % of patients ([2]; human, in vivo): 5.9%
SBP <90 mmHg occurred, patients ([2]; human, in vivo): 3 patients
Study drug related TEAE: Abdominal discomfort, % ([2]; human, in vivo): 2.0%
Study drug related TEAE: Abdominal pain, % ([2]; human, in vivo): 2.0%
Study drug related TEAE: Blurred vision, % ([2]; human, in vivo): 2.0%
Study drug related TEAE: Flushing, % ([2]; human, in vivo): 2.0%
Study drug related TEAE: Headache, % ([2]; human, in vivo): 2.0%
Study drug related TEAE: Myalgia, % ([2]; human, in vivo): 2.0%
Study drug related TEAE: Nausea, % ([2]; human, in vivo): 2.0%
Study drug related TEAE: Ventricular tachycardia, % ([2]; human, in vivo): 2.0%
Incidence of serious adverse events ([2]; human, in vivo, 30 days): 23.5%
Mean by which the lower target limit was exceeded ([2]; in vivo): 8.7 mmHg
Mean heart rate change from baseline to 30 minutes ([2]; in vivo): 2.6 bpm
Symptomatic hypotension, patients ([2]; in vivo): one
Patients expired within 30 days of treatment ([2]; none during study drug administration): 3 patients
Mean VAS decrease from baseline ([3]; at 45 minutes, 100 mm dyspnea VAS): 37.1 mm
Effect on dyspnea compared with nicardipine ([3]; in vivo): significantly greater than the effect of nicardipine on dyspnea
VAS dyspnea scores over time (treatment×time effect) ([3]; vs SOC): decreased more from baseline with clevidipine than SOC
VMAC and PDA scores ([3]; vs SOC): non-significant trends toward greater improvement with clevidipine than SOC
Half-life [4]: about 1 minute

O=[N+]([O-])OCC(CO[N+](=O)[O-])O[N+](=O)[O-] [nitroglycerin]
Speed of VAS improvement, SOC subsets ([3]; FIG. 2D, compared with clevidipine): neither nitroglycerin nor nicardipine improved VAS as quickly as clevidipine
